Test results: patent publication US11229602B2, “Formulations for treating bladder cancer” (priority 2016, dated 2022)
Values joined by “and” are separate entries in the source; they are usually repeats but may differ in a detail not shown here. Equal entries are not always repeated. Where two headings read alike, the source gives them in different places.

Experiments:
[1] = test system: human bladder epithelial carcinoma cell-line 5637 (ATCC HTB-9); assay: Sulforhodamine B (SRB) assay, 5637 cells; format: cell-based; details: 72 h treatment
Experimental: (§1) A sulforhodamine B (SRB) assay-based approach was employed to determine the inhibitory concentration (IC)50 of paclitaxel formulations PLIP-003, PLIP-006, PLIP-021, and PLIP-023 against the human bladder epithelial carcinoma cell-lines T24 (ATCC® HTB-4™), 5637 (ATCC® HTB-9™) and HT-1376 (ATCC® CRL-1472™). For use in the assays, the paclitaxel formulations were redispersed in normal saline to a concentration of 2-5 mg/mL paclitaxel. The dispersed formulations formed clear solutions. Pure, unformulated, paclitaxel solution ([6 mg/100 μL] in DMSO) was used as a control formulation.
(§2) Cells were seeded onto 96-well plates at a density of 5×10^3 cells/well and cultured for 24 h at 37° C. and 5% CO2. The dispersed paclitaxel formulations and pure drug controls were added to the media of the plated cell cultures. […] Protein-bound SRB was detected by adding 100 μl 10 mM Tris base solution to each well, and allowing 5 to 10 minutes for Tris solution to solubilize SRB. The plates were read using a microplate reader at an absorbance of 565 nm. […]
(§3) Cells were seeded onto 96-well plates at a density of 5×10^3 cells/well and cultured for 24 h at 37° C. and 5% CO2. […] Protein-bound SRB was detected by adding 100 μl 10 mM Tris base solution to each well, and allowing 5 to 10 minutes for Tris solution to solubilize SRB. The plates were read using a microplate reader at an absorbance of 565 nm.

[2] = test system: human bladder epithelial carcinoma cell-line HT-1376 (ATCC CRL-1472); assay: Sulforhodamine B (SRB) assay, HT-1376 cells; format: cell-based; details: HT1376; cisplatin formulations; 72 h treatment
Experimental: as §1, §2, §3

[3] = test system: human bladder epithelial carcinoma cell-line T24 (ATCC HTB-4); assay: Sulforhodamine B (SRB) assay, T24 cells; format: cell-based; details: 72 h treatment
Experimental: as §1, §2, §3

[4] = Redispersion / dissolution in normal saline; format: physicochemical
Experimental: as §1
A sulforhodamine B (SRB) assay-based approach was employed to determine the inhibitory concentration IC50 of cisplatin formulations PLIC-002 and PLIC-009 against the human bladder carcinoma epithelial cell-lines T24 (ATCC® HTB-4™), 5637 (ATCC® HTB-9™) and HT-1376 (ATCC® CRL-1472™). For use in the assays, the cisplatin formulations were redispersed in normal saline to a concentration 2 mg/mL cisplatin. The redispersed formulations formed clear solutions. Pure cisplatin solution 1 mg/mL in normal saline (unformulated) was used as a control. Higher concentrations of pure cisplatin were not used because cisplatin will not form a clear solution above 1 mg/mL in normal saline.

[5] = test system: KU-7-GFP human bladder cancer; assay: KU-7-GFP human bladder cancer orthotopic mouse model, intravesical instillation; format: in vivo, mice
Experimental: An orthotopic mouse model was utilized to evaluate a proliposomal formulation of paclitaxel. The bladder cancer cell line KU7/GFP clone 6 was used for these studies. The KU7/GFP clone 6 is stably transfected with the green-fluorescent protein, and these cell lines were used for all in vivo studies. The KU7/GFP clone 6 cell lines are described in Watanabe et al. The cells were grown in modified minimum essential medium supplemented with 10% FCS and incubated at 37° C. in 5% CO2. Tumors generated from KU7/GFP cells were generated […]. The tumors were implanted into the bladder of female mice. […] The foregoing formulations and saline were administered at day 0, day 7, and day 14 post-tumor implantation.
KU-7-GFP human bladder cancer orthotopic MetaMouse® model: The human bladder cancer cell line KU-7 expressing GFP was from the AntiCancer Inc. cell-line bank. The animals were transplanted by intravesical instillation using the KU-7-GFP bladder cancer cells. The animals were anesthetized with a mixture of ketamine, acepromazine and xylazine. The surgical area was sterilized using iodine and alcohol. After proper exposure of the bladder following a lower midline abdominal incision, the bladder was catheterized with a 24-G angiocatheter, drained and injured by a scratch with a needle in the bladder lining. KU-7-GFP (100 μl 2×10^6) cells were instilled into the bladder and a purse string was placed to occlude the urethra in order for the cells to be retained for 1 hour. The bladder was then returned to the abdominal cavity. The incision in the abdominal wall was closed with a 6-0 surgical suture in one layer. The animals were kept under isoflurane anesthesia during surgery. All procedures of the operation described above were performed under a 7× magnification microscope (Olympus). Animals were kept in a barrier facility under HEPA filtration.
On day 7 after tumor cell implantation, fifty animals were randomly divided into five groups (each treatment group contained n=10 mice) on day 7 after tumor implantation. Treatments in all groups for all mice were initiated on the same day, which was considered Study Day 0. Freshly reconstituted formulation (50 μL) was instilled intravesically using a 24 G/¾″ IV catheter, and the urethra was occluded using a purse string knot. The formulation was held in the bladder for a period of 1 h. After 1 h, the purse string was cut open, and the bladder was allowed to void naturally. The same procedure was followed on days 0, 7, 14 […].
In vitro human bladder cancer cell lines (T24, KU7) were used to assess IC50 values. In vivo studies were carried out in nude mice inoculated with KU7-GFP cell-lines. After KU7 bladder tumor inoculation, weekly (×3) intravesical instillations (3 groups: PLIP; PTX/DMSO or PTX/Nab; or saline) were delivered and tumor growth measured. Pharmacokinetic studies were carried out in rat species. A GLP compliant acute-expanded toxicology/toxicokinetics study in rat species was also performed.

[6] = 5.0 mg/kg, nude mice KU7-GFP, weekly intravesical instillations
[7] = 5.0 mg/kg, nude mice KU7-GFP, weekly intravesical instillations, * p < 0.05 vs saline

IC50 ([1]; Homo sapiens, paclitaxel formulations, read-out: IC50) [µg/mL] | IC50 ([3]; Homo sapiens, T-24, paclitaxel formulations, read-out: IC50) [µg/mL] | SMILES | IC50 ([1]; cisplatin formulations) [µg/mL] | IC50 [2] [µg/mL] | IC50 ([3]; cisplatin formulations) [µg/mL] | highest concentration forming a clear solution in normal saline [4] [mg/mL] | Bladder Size [5, 6] [mm^2] | Tumor Size [5, 6] [mm^2] | % Bladder Overtaken by Tumor [5, 7] [%*] | % Complete Response [5, 7] | Final tumor area, measured by fluorescent method ([5]; Groups 3 and 4, title says Study Design 2, two weeks, five groups as in Study Design 1 (5 mg/kg once a week), individual mice, listed as PTX in DMSO, 5 mg/kg) | Final tumor area, measured by fluorescent method, mean ([5]; Groups 3 and 4, title says Study Design 2, two weeks, five groups as in Study Design 1 (5 mg/kg once a week), mean) [mm^2]
 |  | N.N.[Cl][Pt][Cl] [Pure drug, Cis-diamminedichloroplatinum(II)] | 0.441 | 1.11 | 0.788 | ≤ 1 |  |  |  |  |  | 
< 0.1 | < 0.1 | CC(=O)O[C@H]1C(=O)[C@@]2(C)[C@H]([C@H](OC(=O)c3ccccc3)[C@]3(O)C[C@H](OC(=O)[C@H](O)[C@@H](NC(=O)c4ccccc4)c4ccccc4)C(C)=C1C3(C)C)[C@]1(OC(C)=O)CO[C@@H]1C[C@@H]2O [Paclitaxel in DMSO, Paclitaxel] |  |  |  |  | 13 | 0.05 | 10 | 25% (1/4) | 16.39 mm^2 and 5.37 mm^2 and 15.96 mm^2 | 12.58
